Experimental data from US7767411B2, “Assay system for specific inhibitors of protein kinase C-related kinases” (Universitaetsklinikum Freiburg, priority 2004, dated 2010).

Tests used:
[1] = system: protein kinases; conditions: described in S. P. Davies et al.; cited from earlier work
[2] = system: MCF-7 cells; test: androgen receptor agonist R 1881-induced cell proliferation in MCF-7 cells; format: cell-based; conditions: presence or absence of R1881, FIG. 3
Method: The inventors studied the cell proliferation inter alia in MCF-7 cells which is induced by the androgen receptor agonist R 1881 under the activating/promoting action of PRKs. MCF-7 cells were cultivated in RPMI 1640 supplemented with 2 g/l NaHCO3, L-Glu, Pen/Strep, 10% FCS (fetal calf serum), and insulin 1U/ml in the presence or absence of R1881 and Ro31-8220 at the indicated concentrations. The cell proliferation assay was performed according to the manufacture's instructions (Roche, #1647229).

[3] = system: androgen receptor (AR) activation by RhoA V14; test: ligand-dependent activation of the androgen receptor (AR) by RhoA V14, MMTV-LUC reporter in 293 cells; format: cell-based; conditions: RhoA V14 plasmid, with or without R 1881 10^-10 M, 5×10^−7 M Ro31-8220
From the text: In another preferred embodiment, the assay system comprises the reaction of the ligand-dependent activation of the androgen receptor (AR) by RhoA V 14. […] Reference is made, in this respect, to FIG. 2.

Structure (SMILES) | protein kinases acted on (specificity) [1] | R 1881-induced cell proliferation [2] | agonist-dependent androgen receptor (AR) activation by RhoA V14 [3]
Cn1cc(C2=C(c3cn(CCCSC(=N)N)c4ccccc34)C(=O)NC2=O)c2ccccc21 [Ro31-8220] | act on PRKs, but also on MSK1, S6K1 and other protein kinases | inhibited | abolished
C[C@@H](N)[C@H]1CC[C@H](C(=O)Nc2ccncc2)CC1 [Y 27632] | act on PRKs, but also on MSK1, ROCK-II and MAPKAP-K1b |  | 
